Experimental data from the supplement of paper PMC13207355.
Where a name gives a salt, the structure may show the parent alone.

Key:
Conditions in all cases: exposure time: 72 h
E13 [1] = patient-derived glioblastoma stem cells of classical subtype; assay: surviving fraction (nuclei count normalised to DMSO); higher = more cells surviving (less toxic)
E21 [2] = patient-derived glioblastoma stem cells of mesenchymal subtype; assay: as above
E28 [3] = patient-derived glioblastoma stem cells of classical subtype; assay: as above
E31 [4] = patient-derived glioblastoma stem cells of proneural subtype; assay: as above
E34 [5] = patient-derived glioblastoma stem cells of proneural subtype; assay: as above
E57 [6] = patient-derived glioblastoma stem cells of mesenchymal subtype; assay: as above
FT3469 [7] = normal neural stem cell line; assay: as above
E13 [8] = assay: phenotypic distance (Euclidean, principal components) from DMSO controls (arbitrary units); higher = stronger morphological change
E21 [9] = assay: as above
E28 [10] = assay: as above
E31 [11] = assay: as above
E34 [12] = assay: as above
E57 [13] = assay: as above
FT3469 [14] = assay: as above
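Throughout, for phenotypic distance (Euclidean, principal components) from DMSO controls: cell Painting imaging in 384-well plates, CellProfiler features reduced to at least 20 principal components, Euclidean distance versus same-plate DMSO vehicle wells (0.1% v/v), median over six images per well.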
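Throughout, for surviving fraction (nuclei count normalised to DMSO): nuclei counted by high-content imaging of Hoechst-stained cells in laminin-coated 384-well plates, relative to 0.1% DMSO vehicle wells, with staurosporine as cell-death control.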

OC(c1cc(C(F)(F)F)nc2c(C(F)(F)F)cccc12)C1CCCCN1 (stereo not drawn) [Mefloquine hydrochloride]
Conditions	phenotypic distance	surviving fraction
E13 [1], 4.1 nM	–	0.953
E13 [1], 12.3 nM	–	0.908
E13 [1], 37 nM	–	1.09
E13 [1], 111.1 nM	–	1.03
E13 [1], 333.3 nM	–	0.98
E13 [1], 1000 nM	–	0.992
E13 [1], 3000 nM	–	0.842
E13 [8], 4.1 nM	0.361	–
E13 [8], 12.3 nM	0.509	–
E13 [8], 37 nM	0.5	–
E13 [8], 111.1 nM	1.43	–
E13 [8], 333.3 nM	0.51	–
E13 [8], 1000 nM	0.651	–
E13 [8], 3000 nM	0.845	–
E21 [2], 4.1 nM	–	1.11
E21 [2], 12.3 nM	–	0.951
E21 [2], 37 nM	–	0.98
E21 [2], 111.1 nM	–	0.983
E21 [2], 333.3 nM	–	1.07
E21 [2], 1000 nM	–	1.05
E21 [2], 3000 nM	–	1.07
E21 [9], 4.1 nM	0.776	–
E21 [9], 12.3 nM	0.568	–
E21 [9], 37 nM	0.797	–
E21 [9], 111.1 nM	0.488	–
E21 [9], 333.3 nM	0.618	–
E21 [9], 1000 nM	0.511	–
E21 [9], 3000 nM	1.05	–
E28 [3], 4.1 nM	–	1.12
E28 [3], 12.3 nM	–	1
E28 [3], 37 nM	–	1.22
E28 [3], 111.1 nM	–	1.14
E28 [3], 333.3 nM	–	1.23
E28 [3], 1000 nM	–	1.21
E28 [3], 3000 nM	–	1.12
E28 [10], 4.1 nM	0.636	–
E28 [10], 12.3 nM	0.53	–
E28 [10], 37 nM	0.741	–
E28 [10], 111.1 nM	0.677	–
E28 [10], 333.3 nM	0.764	–
E28 [10], 1000 nM	1.07	–
E28 [10], 3000 nM	1.8	–
E31 [4], 4.1 nM	–	1.11
E31 [4], 12.3 nM	–	0.942
E31 [4], 37 nM	–	1.15
E31 [4], 111.1 nM	–	0.922
E31 [4], 333.3 nM	–	1.11
E31 [4], 1000 nM	–	1.06
E31 [4], 3000 nM	–	0.997
E31 [11], 4.1 nM	0.433	–
E31 [11], 12.3 nM	0.421	–
E31 [11], 37 nM	0.563	–
E31 [11], 111.1 nM	0.539	–
E31 [11], 333.3 nM	0.506	–
E31 [11], 1000 nM	0.632	–
E31 [11], 3000 nM	0.65	–
E34 [5], 4.1 nM	–	1.1
E34 [5], 12.3 nM	–	0.856
E34 [5], 37 nM	–	1.06
E34 [5], 111.1 nM	–	0.941
E34 [5], 333.3 nM	–	1.14
E34 [5], 1000 nM	–	0.908
E34 [5], 3000 nM	–	1.02
E34 [12], 4.1 nM	0.892	–
E34 [12], 12.3 nM	0.581	–
E34 [12], 37 nM	0.73	–
E34 [12], 111.1 nM	0.475	–
E34 [12], 333.3 nM	0.804	–
E34 [12], 1000 nM	0.787	–
E34 [12], 3000 nM	0.828	–
E57 [6], 4.1 nM	–	1.05
E57 [6], 12.3 nM	–	1.05
E57 [6], 37 nM	–	0.93
E57 [6], 111.1 nM	–	0.987
E57 [6], 333.3 nM	–	1.17
E57 [6], 1000 nM	–	0.93
E57 [6], 3000 nM	–	0.903
E57 [13], 4.1 nM	0.488	–
E57 [13], 12.3 nM	0.813	–
E57 [13], 37 nM	0.474	–
E57 [13], 111.1 nM	0.652	–
E57 [13], 333.3 nM	1.37	–
E57 [13], 1000 nM	0.948	–
E57 [13], 3000 nM	0.991	–
FT3469 [7], 4.1 nM	–	1.13
FT3469 [7], 12.3 nM	–	1.13
FT3469 [7], 37 nM	–	0.975
FT3469 [7], 111.1 nM	–	1.2
FT3469 [7], 333.3 nM	–	1.07
FT3469 [7], 1000 nM	–	1.02
FT3469 [7], 3000 nM	–	0.875
FT3469 [14], 4.1 nM	0.882	–
FT3469 [14], 12.3 nM	0.444	–
FT3469 [14], 37 nM	0.675	–
FT3469 [14], 111.1 nM	0.627	–
FT3469 [14], 333.3 nM	0.598	–
FT3469 [14], 1000 nM	0.423	–
FT3469 [14], 3000 nM	1.16	–
